According to patent publication US9115143B2, “Substituted indole derivatives as gamma secretase modulators” (Janssen Pharmaceuticals, Inc., priority 2011, dated 2015):

Columns and labels:
Aβ42 = test: Screening for γ-secretase-modulating activity: Aβ42 in supernatant of SKNBE2 cells carrying hAPP 695 wild type (Alphalisa); format: cell-based, human; details: overnight incubation, Alphalisa on supernatant
Method: (§1) Pharmacology A) Screening of the Compounds of the Invention for γ-Secretase-Modulating Activity
(§2) Screening was carried out using SKNBE2 human neuroblastoma cells carrying the hAPP 695—wild type, grown in Dulbecco's Modified Eagle's Medium/Nutrient mixture F-12 (DMEM/NUT-mix F-12) (HAM) provided by Invitrogen (cat no. 10371-029) containing 5% Serum/Fe supplemented with 1% non-essential amino acids, 1-glutamine 2 mM, Hepes 15 mM, penicillin 50 U/mL (units/mL) en streptomycin 50 μg/mL. Cells were grown to near confluency.
(§3) The screening was performed using a modification of the assay as described in Citron et al (1997) Nature Medicine 3: 67. Briefly, cells were plated in a 384-well plate at 10^4 cells/well in Ultraculture (Lonza, BE12-725F) supplemented with 1% glutamine (Invitrogen, 25030-024), 1% non-essential amino acid (NEAA), penicillin 50 U/mL en streptomycin 50 μg/mL in the presence of test compound at different test concentrations. The cell/compound mixture was incubated overnight at 37° C., 5% CO2. The next day the media were assayed by two sandwich immuno-assays, for Aβ42 and Aβtotal.
(§4) Aβtotal and Aβ42 concentrations were quantified in the cell supernatant using the Aphalisa technology (Perkin Elmer). Alphalisa is a sandwich assay using biotinylated antibody attached to streptavidin coated donorbeads and antibody conjugated to acceptor beads. In the presence of antigen, the beads come into close proximity. The excitation of the donor beads provokes the release of singlet oxygen molecules that trigger a cascade of energy transfer in the acceptor beads, resulting in light emission. To quantify the amount of Aβ42 in the cell supernatant, monoclonal antibody specific to the C-terminus of Aβ42 (JRF/cAβ42/26) was coupled to the receptor beads and biotinylated antibody specific to the N-terminus of Aβ (JRF/AβN/25) was used to react with the donor beads. To quantify the amount of Aβ total in the cell supernatant, monoclonal antibody specific to the N-terminus of Aβ (JRF/AβN/25) was coupled to the receptor beads and biotinylated antibody specific to the mid region of Aβ (biotinylated 4G8) was used to react with the donor beads.
(§5) To obtain the values reported in Table 3, the data are calculated as percentage of the maximum amount of amyloid Beta 42 measured in the absence of the test compound. The sigmoidal dose response curves were analyzed using nonlinear regression analysis with percentage of the control plotted against the log concentration of the compound. A 4-parameter equation was used to determine the IC50.

Aβtotal = test: Screening for γ-secretase-modulating activity: Aβtotal in supernatant of SKNBE2 cells carrying hAPP 695 wild type (Alphalisa); format: cell-based, human; details: overnight incubation, Alphalisa on supernatant
Method: as §1, §2, §3, §4, §5

[1] = SKNBE2 human neuroblastoma cells carrying hAPP 695 wild type
[2] = Homo sapiens, SKNBE2, SKNBE2 human neuroblastoma cells carrying hAPP 695 wild type

IC50 (Aβ42; [1])	IC50 (Aβtotal; [2])	IC50 (Aβtotal; [1])	IC50 (Aβ42; [2])	Compound
5130 nM	> 10000 nM	–	–	COc1c(C#N)ccc2[nH]c(-c3nc4n(n3)CCOC4c3cc(C(F)(F)F)ccc3F)cc12 (single isomer, unassigned) [Compound 160, 2-[8-[2-fluoro-5-(trifluoromethyl)phenyl]-5,6-dihydro-8H-[1,2,4]triazolo[5,1-c][1,4]oxazin-2-yl]-4-methoxy-1H-indole-5-carbonitrile]
98 nM	–	> 10000 nM	–	COc1c(C#N)ccc2[nH]c(-c3nc4n(n3)CCOC4c3cc(C(F)(F)F)ccc3F)cc12 (single isomer, unassigned) [Compound 161, 2-[8-[2-fluoro-5-(trifluoromethyl)phenyl]-5,6-dihydro-8H-[1,2,4]triazolo[5,1-c][1,4]oxazin-2-yl]-4-methoxy-1H-indole-5-carbonitrile]
> 10000 nM	–	> 10000 nM	–	Cc1cc(F)ccc1C1OCCn2nc(-c3cc4c(OC(C)C)c(C#N)ccc4[nH]3)nc21 (single isomer, unassigned) [Compound 172, 2-[8-(4-fluoro-2-methylphenyl)-5,6-dihydro-8H-[1,2,4]triazolo[5,1-c][1,4]oxazin-2-yl]-4-(1-methylethoxy)-1H-indole-5-carbonitrile]
251 nM	> 10000 nM	–	–	Cc1cc(F)ccc1C1OCCn2nc(-c3cc4c(OC(C)C)c(C#N)ccc4[nH]3)nc21 (single isomer, unassigned) [Compound 173, 2-[8-(4-fluoro-2-methylphenyl)-5,6-dihydro-8H-[1,2,4]triazolo[5,1-c][1,4]oxazin-2-yl]-4-(1-methylethoxy)-1H-indole-5-carbonitrile]
110 nM	> 10000 nM	–	–	Cc1cc(-c2ccc3[nH]c(-c4nc5n(n4)CCCC5c4ccc(F)cc4C)nc3c2)ccn1 (single isomer, unassigned) [Compound 174, 8-(4-fluoro-2-methylphenyl)-5,6,7,8-tetrahydro-2-[5-(2-methyl-4-pyridinyl)-1H-benzimidazol-2-yl]-[1,2,4]triazolo[1,5-a]pyridine]
28 nM	–	> 10000 nM	–	Cc1cc(-c2ccc3[nH]c(-c4nc5n(n4)CCCC5c4ccc(F)cc4C)nc3c2)ccn1 (single isomer, unassigned) [Compound 175, 8-(4-fluoro-2-methylphenyl)-5,6,7,8-tetrahydro-2-[5-(2-methyl-4-pyridinyl)-1H-benzimidazol-2-yl]-[1,2,4]triazolo[1,5-a]pyridine]
5890 nM	> 10000 nM	–	–	Cc1cc(F)ccc1C1CCCn2nc(-c3[nH]c4ccc(C#N)cc4c3F)nc21 (single isomer, unassigned) [Compound 181, 3-fluoro-2-[8-(4-fluoro-2-methylphenyl)-5,6,7,8-tetrahydro[1,2,4]triazolo[1,5-a]pyridin-2-yl]-1H-indole-5-carbonitrile]
–	7410 nM	–	22 nM	Cc1cc(-c2ccc3[nH]c(-c4nc5n(n4)CCCC5c4ccccc4C(F)(F)F)cc3c2)ccn1 (stereo not drawn) [Compound 2, 5,6,7,8-tetrahydro-2-[5-(2-methyl-4-pyridinyl)-1H-indol-2-yl]-8-[2-(trifluoromethyl)phenyl]-[1,2,4]triazolo[1,5-a]pyridine]
–	> 10000 nM	–	437 nM	Cc1ccc(C(F)(F)F)cc1C1CCCn2nc(-c3cc4cc(C#N)cnc4[nH]3)nc21 (stereo not drawn) [Compound 3, 2-[5,6,7,8-tetrahydro-8-[2-methyl-5-(trifluoromethyl)phenyl][1,2,4]triazolo[1,5-a]pyridin-2-yl]-1H-pyrrolo[2,3-b]pyridine-5-carbonitrile]
3470 nM	–	> 10000 nM	–	Cc1cc(F)ccc1C1CCCn2nc(-c3cc4cc(C#N)ccc4[nH]3)nc21 (stereo not drawn) [Compound 11, 2-[8-(4-fluoro-2-methylphenyl)-5,6,7,8-tetrahydro[1,2,4]triazolo[1,5-a]pyridin-2-yl]-1H-indole-5-carbonitrile]
2950 nM	–	> 10000 nM	–	Cc1ccccc1C1CCCn2nc(-c3cc4cc(C#N)ccc4[nH]3)nc21 (stereo not drawn) [Compound 14, 2-[5,6,7,8-tetrahydro-8-(2-methylphenyl)[1,2,4]triazolo[1,5-a]pyridin-2-yl]-1H-indole-5-carbonitrile]
–	> 10000 nM	–	89 nM	Cc1ccccc1C1CCCn2cc(-c3cc4cc(C#N)ccc4[nH]3)nc21 (stereo not drawn) [Compound 15, 2-[5,6,7,8-tetrahydro-8-(2-methylphenyl)imidazo[1,2-a]pyridin-2-yl]-1H-indole-5-carbonitrile]
–	> 10000 nM	–	87 nM	N#Cc1ccc2[nH]c(-c3cn4c(n3)C(c3ccccc3C(F)(F)F)CCC4)cc2c1 (stereo not drawn) [Compound 17, 2-[5,6,7,8-tetrahydro-8-[2-(trifluoromethyl)phenyl]imidazo[1,2-a]pyridin-2-yl]-1H-indole-5-carbonitrile]
–	> 10000 nM	–	589 nM	Cc1cc(F)ccc1C1CCCn2nc(-c3cc4cc(C#N)cnc4[nH]3)nc21 (stereo not drawn) [Compound 23, 2-[8-(4-fluoro-2-methylphenyl)-5,6,7,8-tetrahydro[1,2,4]triazolo[1,5-a]pyridin-2-yl]-1H-pyrrolo[2,3-b]pyridine-5-carbonitrile]
–	> 10000 nM	–	257 nM	Cc1ccccc1C1CCCn2nc(-c3cc4cc(C#N)ncc4[nH]3)nc21 (stereo not drawn) [Compound 24, 2-[5,6,7,8-tetrahydro-8-(2-methylphenyl)[1,2,4]triazolo[1,5-a]pyridin-2-yl]-1H-pyrrolo[2,3-c]pyridine-5-carbonitrile]
–	> 10000 nM	–	107 nM	COc1cc2[nH]c(-c3nc4n(n3)CCCC4c3ccccc3C(F)(F)F)cc2cc1C#N (stereo not drawn) [Compound 28, 6-methoxy-2-[5,6,7,8-tetrahydro-8-[2-(trifluoromethyl)phenyl][1,2,4]triazolo[1,5-a]pyridin-2-yl]-1H-indole-5-carbonitrile]
–	> 10000 nM	–	692 nM	Cc1ccc(C(F)(F)F)cc1C1OCCn2nc(-c3cc4cc(C#N)ccc4[nH]3)nc21 (stereo not drawn) [Compound 34, 2-[5,6-dihydro-8-[2-methyl-5-(trifluoromethyl)phenyl]-8H-[1,2,4]triazolo[5,1-c][1,4]oxazin-2-yl]-1H-indole-5-carbonitrile]
–	> 10000 nM	–	363 nM	N#Cc1ccc2[nH]c(-c3nc4n(n3)CCOC4c3ccccc3C(F)(F)F)cc2c1 (stereo not drawn) [Compound 35, 2-[5,6-dihydro-8-[2-(trifluoromethyl)phenyl]-8H-[1,2,4]triazolo[5,1-c][1,4]oxazin-2-yl]-1H-indole-5-carbonitrile]
35 nM	> 10000 nM	–	–	COc1c(C#N)ccc2[nH]c(-c3cn4c(n3)C(c3cccc(F)c3C)OCC4)cc12 (stereo not drawn) [Compound 40, 2-[8-(3-fluoro-2-methylphenyl)-5,6-dihydro-8H-imidazo[2,1-c][1,4]oxazin-2-yl]-4-methoxy-1H-indole-5-carbonitrile]
468 nM	–	> 10000 nM	–	COc1c(C#N)ccc2[nH]c(-c3cn4c(n3)C(c3cccc(F)c3C)OCC4)cc12 (stereo not drawn) [Compound 42, 2-[8-(3-fluoro-2-methylphenyl)-5,6-dihydro-8H-imidazo[2,1-c][1,4]oxazin-2-yl]-4-methoxy-1H-indole-5-carbonitrile]
58 nM	> 10000 nM	–	–	COc1c(C#N)ccc2[nH]c(-c3cn4c(n3)C(c3ccccc3Cl)OCC4)cc12 (stereo not drawn) [Compound 49, 2-[8-(2-chlorophenyl)-5,6-dihydro-8H-imidazo[2,1-c][1,4]oxazin-2-yl]-4-methoxy-1H-indole-5-carbonitrile]
44 nM	> 10000 nM	–	–	COc1c(C#N)ccc2[nH]c(-c3nc4n(n3)CCCOC4c3ccc(F)cc3C)cc12 (stereo not drawn) [Compound 52, 2-[9-(4-fluoro-2-methylphenyl)-6,7-dihydro-5H,9H-[1,2,4]triazolo[5,1-c][1,4]oxazepin-2-yl]-4-methoxy-1H-indole-5-carbonitrile]
2340 nM	–	> 10000 nM	–	COc1c(C#N)ccc2[nH]c(-c3nc4n(n3)CCCOC4c3ccc(F)cc3C)cc12 (stereo not drawn) [Compound 54, 2-[9-(4-fluoro-2-methylphenyl)-6,7-dihydro-5H,9H-[1,2,4]triazolo[5,1-c][1,4]oxazepin-2-yl]-4-methoxy-1H-indole-5-carbonitrile]
–	> 10000 nM	–	49 nM	COc1c(C#N)ccc2[nH]c(-c3nc4n(n3)CCN(C)C4c3ccc(F)cc3C)cc12 (stereo not drawn) [Compound 58, 2-[8-(4-fluoro-2-methylphenyl)-5,6,7,8-tetrahydro-7-methyl[1,2,4]triazolo[1,5-a]pyrazin-2-yl]-4-methoxy-1H-indole-5-carbonitrile]
